How the values were obtained:
Assay in all cases: relative viability (nuclei count vs DMSO), 5 days (fraction); higher = more cells survive
[1] = compound: CNC(=O)c1ccccc1Sc1ccc2c(/C=C/c3ccccn3)n[nH]c2c1 [Axitinib] + COc1cccc2cc(-c3nc([C@H]4CC[C@H](C(=O)O)CC4)n4ncnc(N)c34)[nH]c12 [OSI-027] (partner 0.5 µM)
How it was run: (§1)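 One day after seeding in 1536-well plates, lung cancer cell lines were dosed by pin tool. Dosing was either single-drug or a fixed anchor-drug dose plus five library-drug doses (not always all listed) in √10 steps. After 5 days, nuclei were stained in one fix-and-stain step and counted on 4× images, and relative viability is the nuclei count of treated wells over that of vehicle wells, given as the median of duplicate plates.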

[2] = compound: CC1=CC=C(C=C1)C(=O)CN2C3=C(CCCC3)SC2=N [Pifithrin_alpha] + Cc1cc(Nc2cc(N3CCN(C)CC3)nc(Sc3ccc(NC(=O)C4CC4)cc3)n2)n[nH]1 [Tozasertib] (partner 0.1 µM)
How it was run: as §1

[3] = compound: Nc1nc(Nc2ccc3c(c2)CC[C@@H](N2CCCC2)CC3)nn1-c1cc2c(nn1)-c1ccccc1CCC2 [Bemcentinib] + CS(=O)(=O)N1CCN(Cc2cc3nc(-c4cccc5[nH]ncc45)nc(N4CCOCC4)c3s2)CC1 [Pictilisib] (partner 1 µM)
How it was run: as §1

[4] = compound: Nc1nc(Nc2ccc3c(c2)CC[C@@H](N2CCCC2)CC3)nn1-c1cc2c(nn1)-c1ccccc1CCC2 [Bemcentinib] + O=C(CCCCCCC(=O)Nc1ccccc1)NO [Vorinostat] (partner 1 µM)
How it was run: as §1

Row | Cell Line | relative viability ([1]; first compound 0.005 µM) | relative viability ([1]; first compound 0.01581 µM) | relative viability ([1]; first compound 0.05 µM) | relative viability ([1]; first compound 0.1581 µM) | relative viability ([1]; first compound 0.5 µM) | relative viability ([2]; first compound 1 µM) | relative viability ([2]; first compound 3.162 µM) | relative viability ([2]; first compound 10 µM) | relative viability ([2]; first compound 31.62 µM) | relative viability ([2]; first compound 100 µM) | relative viability ([3]; first compound 0.04 µM) | relative viability ([3]; first compound 0.1265 µM) | relative viability ([3]; first compound 0.4 µM) | relative viability ([3]; first compound 1.265 µM) | relative viability ([3]; first compound 4 µM) | relative viability ([4]; first compound 0.04 µM) | relative viability ([4]; first compound 0.1265 µM) | relative viability ([4]; first compound 0.4 µM) | relative viability ([4]; first compound 1.265 µM) | relative viability ([4]; first compound 4 µM)
1 | ChaGo-K-1 | 0.547 | 0.505 | 0.67 | 0.554 | 0.591 | 0.218 | 0.219 | 0.204 | 0.226 | 0.192 | 0.579 | 0.733 | 0.795 | 0.426 | 0.434 | 0.686 | 0.832 | 0.823 | 0.749 | 0.755
2 | EBC-1 |  |  |  |  |  |  |  |  |  |  | 0.391 | 0.307 | 0.39 | 0.399 | 0.353 |  |  |  |  | 
3 | EKVX | 0.708 | 0.708 | 0.746 | 0.737 | 0.69 | 0.532 |  | 0.349 | 0.245 | 0.349 | 0.404 | 0.474 | 0.503 | 0.436 | 0.451 | 0.509 | 0.815 | 0.726 | 0.701 | 0.79
4 | EMC-BAC-2 | 0.409 | 0.374 | 0.359 | 0.426 | 0.409 | 0.272 | 0.288 | 0.283 |  | 0.248 | 0.544 | 0.561 | 0.529 | 0.548 | 0.569 | 0.38 | 0.413 | 0.537 | 0.358 | 0.4
5 | EPLC-272H | 0.3 | 0.286 | 0.248 | 0.293 | 0.283 | 0.255 | 0.13 | 0.169 | 0.202 | 0.292 |  | 0.356 | 0.343 | 0.294 | 0.316 | 0.441 | 0.458 | 0.459 | 0.405 | 0.58
6 | H3255 | 0.651 | 0.512 | 0.612 | 0.599 | 0.544 | 0.642 | 0.896 | 0.574 | 0.572 | 0.708 | 0.463 | 0.488 | 0.448 | 0.465 | 0.557 |  | 0.755 | 0.772 | 0.784 | 0.772
7 | HARA | 0.445 | 0.414 | 0.666 | 0.49 | 0.802 |  | 0.107 | 0.117 |  | 0.0634 | 0.407 | 0.423 | 0.338 | 0.392 | 0.371 | 0.402 | 0.658 | 0.573 | 0.645 | 0.543
8 | HCC-15 | 0.725 | 0.679 | 0.689 | 0.65 | 0.623 | 0.463 | 0.544 | 0.245 | 0.212 | 0.165 | 0.747 | 0.767 | 0.822 | 0.738 | 0.781 | 0.853 | 0.953 | 0.913 | 0.927 | 0.879
9 | HCC-44 | 0.451 | 0.439 | 0.404 | 0.605 | 0.614 | 0.748 | 1.07 | 0.685 | 0.461 | 0.452 | 0.698 | 0.618 | 0.599 | 0.625 | 0.651 | 1.15 | 1.2 | 1.05 | 1.13 | 1.08

Reference: the supplement of paper PMC10307832
